Assay results taken from PubChem BioAssay AID1996.
In brackets after ≈: the same amount, converted by molar mass.

Conditions: buffer; pH 7.4; 200.0 µM

Row | SMILES | solubility kinetic
1 | Cc1ccc(CC(=O)Nc2nccs2)cc1C | 3.3 µg/mL (≈ 13.4 µM)
2 | Cc1ccccc1C(=O)OCC(=O)N(C)c1ccccc1 | > 42.5 µg/mL
3 | CSc1ncccc1C(=O)OCC(=O)Nc1nc(C)c(Cl)cc1Cl | 10 µg/mL (≈ 25.9 µM)
4 | CC(C)c1ccccc1NC(=S)NCC1(N(C)C)CCCCC1 | 45.9 µg/mL (≈ 138 µM)
5 | Cc1ccc(N=Cc2c(O)n(C)c(=O)n(C)c2=O)cc1 | 6.1 µg/mL (≈ 22.3 µM)
6 | Cc1cc(C(=O)COC(=O)/C=C/c2cccc(F)c2)c(C)n1C | < 0.7 µg/mL
7 | Cc1nnc(NC(=O)c2ccc3nccnc3c2)s1 | > 40.7 µg/mL
8 | CS(=O)(=O)Nc1cc2c3c(c1)CCC(=O)N3CCC2 | 39.9 µg/mL (≈ 142 µM)
9 | COc1ccc(/C=C/C(=O)NC2CCCCC2C)cc1 (centres undefined) | 4 µg/mL (≈ 14.6 µM)
10 | CCOc1ccc(/C=C(\C#N)C(=O)Nc2ccccn2)cc1 | 2.7 µg/mL (≈ 9.2 µM)
11 | CC(C)n1c(CN(C)Cc2ccccc2)nc2c1c(=O)n(C)c(=O)n2C | 23.8 µg/mL (≈ 67 µM)
12 | CCN(CC(=O)NCc1ccc(Cl)cc1)C(=O)c1sccc1C | > 52.6 µg/mL
13 | O=S(=O)(NCCc1ccccc1)c1cccs1 | 34 µg/mL (≈ 127 µM)
14 | O=C(CSc1nc(-c2ccccc2)cs1)NCCCN1CCCC1=O | > 56.3 µg/mL
15 | COc1ccccc1CNCCc1ccc(F)cc1.O=C(O)C(=O)O | > 52.4 µg/mL
16 | CC1CC(C)CN(C(=O)c2ccc(S(=O)(=O)N3CCCCC3)cc2)C1 (centres undefined) | 5.1 µg/mL (≈ 14 µM)
17 | C=C(C)CN(Cc1ccccc1)C(=S)Nc1ccccc1 | 1.9 µg/mL (≈ 6.41 µM)
18 | O=C(CSc1nnc(-c2ccco2)o1)Nc1ccccc1Cl | > 50.4 µg/mL
19 | O=C(CN1C(=O)c2ccccc2C1=O)NC1CCCCC1 | 33.4 µg/mL (≈ 117 µM)
20 | Cn1ccnc1SCC(=O)c1c(N)n(C)c(=O)n(C)c1=O | 41.5 µg/mL (≈ 134 µM)

Row | SMILES | solubility kinetic
21 | Cc1cccc(NC(=O)CSc2nc3ccccc3c(=O)n2C)c1 | 0.5 µg/mL (≈ 1.47 µM)
22 | CCCCCCC(=O)c1c([O-])n(-c2ccc(OC)cc2)c(=O)[nH]c1=O.C[NH+](C)C | 44.5 µg/mL
23 | O=C(CN1C(=O)c2ccccc2C1=O)N1CCN=C1c1ccccc1 | > 50 µg/mL
24 | O=C(N/C(=C\c1ccc(Cl)cc1)C(=O)N1CCOCC1)c1ccco1 | > 54.1 µg/mL
25 | O=C(COC(=O)c1ccc([N+](=O)[O-])o1)Nc1ncc(Cl)cc1Cl | > 54 µg/mL
26 | Cc1cc(C)c(S(=O)(=O)NCC(=O)NCc2ccco2)c(C)c1 | 44.2 µg/mL (≈ 131 µM)
27 | CN1C2=CC=CC=CC2=[N+](C)C12C([N+](=O)[O-])=CC(=[N+]([O-])[O-])C=C2[N+](=O)[O-] (centres undefined) | 0.7 µg/mL (≈ 1.95 µM)
28 | COCCNC(=O)C(NC(=O)C1CCCCC1)C(C)C (centres undefined) | > 42.7 µg/mL
29 | CC(C)N1CCN(Cc2ccc3c(c2)OCCO3)CC1CCO (centres undefined) | 45.5 µg/mL (≈ 142 µM)
30 | CC(C)NC(=O)c1ccccc1NC(=O)Cc1ccc([N+](=O)[O-])cc1 | 19.1 µg/mL (≈ 56 µM)
31 | C=CCn1c(N2CCOCC2)nc2c1c(=O)[nH]c(=O)n2C | > 43.7 µg/mL
32 | COc1cccc(N2CC(C(=O)Nc3ccc(F)cc3)CC2=O)c1 (centres undefined) | 20.3 µg/mL (≈ 61.8 µM)
33 | CC1CCCCN1S(=O)(=O)c1csc(C(N)=O)c1 (centres undefined) | > 43.3 µg/mL
34 | CCOC(=O)c1c(C)n(Cc2ccc(F)cc2)c2ccc(O)cc12 | < 0.7 µg/mL
35 | Cc1nc([N+](=O)[O-])cn1CCCCN1C(=O)c2ccccc2C1=O | 8.3 µg/mL (≈ 25.3 µM)
36 | COC(=O)c1ccccc1CSc1nsc(C)c1C#N | < 0.3 µg/mL
37 | CC1CCN(S(=O)(=O)c2cccc(S(=O)(=O)N3CCCC3)c2)CC1 | 28.1 µg/mL (≈ 75.4 µM)
38 | CC(=O)c1ccc(NC(=O)C2(c3ccccc3)CC2(Cl)Cl)cc1 (centres undefined) | 19.6 µg/mL (≈ 56.3 µM)
39 | NC(=O)c1cccc(C(N)=O)n1 | > 24.8 µg/mL
40 | O=C(CS(=O)(=O)c1ccccc1)Nc1nccs1 | > 42.3 µg/mL

Row | SMILES | solubility kinetic
41 | CC1(c2cccc(Br)c2)NC(=O)N(CC(=O)Nc2ccc3c(c2)OCCO3)C1=O (centres undefined) | 67.3 µg/mL (≈ 146 µM)
42 | COc1ccc(CCNC(=S)NCCc2ccc(OC)c(OC)c2)cc1OC | > 60.7 µg/mL
43 | CCOC(=O)c1cc(C)nc(Sc2ccc(C)cc2)c1C#N | 3.1 µg/mL (≈ 9.92 µM)
44 | Cc1ccc(Sc2cnccc2C#N)cc1 | 15.4 µg/mL (≈ 68.1 µM)
45 | O=C(Cc1ccccc1)c1c[nH]c(C(=O)NCCCn2ccnc2)c1 | > 50.5 µg/mL
46 | COC(=O)CNC(=O)/C=C/c1cc(Br)ccc1OC | 38.1 µg/mL (≈ 116 µM)
47 | O=C(COC(=O)c1ccc([N+](=O)[O-])o1)NC12CC3CC(CC(C3)C1)C2 | > 52.3 µg/mL
48 | N#CC(C(=O)c1ccccc1Cl)=C1SCCCS1 | 9.4 µg/mL (≈ 31.8 µM)
49 | COc1cccc(OCC(=O)Nc2ccccc2-c2ccccc2)c1 | 1.5 µg/mL (≈ 4.5 µM)
50 | Cn1ccsc1=NC(=O)c1ccc(CS(C)(=O)=O)cc1 | > 46.6 µg/mL
51 | CCCC(=O)C1=C(N2CCCC2)CC(C)(C)C(C(=O)OC)C1=O (centres undefined) | 44.9 µg/mL (≈ 140 µM)
52 | c1cnc(-c2noc(CN3CCN(C4CCCC4)CC3)n2)cn1 | > 47.2 µg/mL
53 | CCOC(=O)c1ccc(NC(=O)Cc2cccs2)cc1 | > 43.4 µg/mL
54 | O=C(CCc1ccccc1)NCc1ccncc1 | > 36 µg/mL
55 | COCCNC(=S)N1CCC(NC(=O)c2ccco2)CC1 | > 46.7 µg/mL
56 | COc1ccc(NC(=O)CCCCC(=O)Nc2ccc(OC)cc2OC)c(OC)c1 | 12.4 µg/mL (≈ 29.8 µM)
57 | Cc1cc(C)c(C#N)c(OCC(=O)Nc2ccccc2)n1 | 31.7 µg/mL (≈ 113 µM)
58 | Cc1ccc(N=C2C(=O)Nc3ccccc32)cc1C | 24 µg/mL (≈ 95.9 µM)
59 | O=c1ccn(CCc2c[nH]c3ccccc23)c2c1CCCC2 | > 43.9 µg/mL
